Measured values: article PMC6150240, “Synthesis and 2D-QSAR Study of Active Benzofuran-Based Vasodilators” (Molecules : A Journal of Synthetic Chemistry and Natural …, 2017)
Like-named read-outs stand apart in the source and are kept apart here.

Assays:
[1] = tested on: isolated thoracic aortic rings of male Wistar rats; assay: Vasodilation activity screening: isolated thoracic aortic rings pre-contracted with norepinephrine hydrochloride; conditions: Rattus norvegicus
Description: The vasodilation activity screening procedures were carried out according to the standard reported techniques by testing the effects of the synthesized 2-alkoxy-4-aryl-6-(benzofuran-2-yl)-3-pyridinecarbonitriles 4a–x on isolated thoracic aortic rings of male Wistar rats (250–350 g). After light ether anesthesia, the rats were sacrificed by cervical dislocation. The aortae were immediately excised, freed of extraneous tissues and prepared for isometric tension recording. Aorta was cut into (3–5 mm width) rings and each ring was placed in a vertical chamber “10 mL jacketed automatic multi-chamber organ bath system (Model no. ML870B6/C, Panlab, Spain)” filled with Krebs solution composed of (in mM): NaCl, 118.0; KCl, 4.7; NaHCO3, 25.0; CaCl2, 1.8; NaH2PO4, 1.2; MgSO4, 1.2; glucose, 11.0 and oxygenated with carbogen gas (95% O2/5% CO2) at 37 ± 0.5 °C. Each aortic ring was mounted between two stainless steel hooks passed through its lumen. The lower hook was fixed between two plates, while the upper one was attached to a force displacement transducer (Model no. MLT0201, Panlab, Spain) connected to an amplifier (PowerLab, AD Instruments Pty., Ltd. Victoria, Australia), which is connected to a computer. The chart for Windows (v 3.4) software was used to record and elaborate data. Preparations were stabilized under 2 g resting tension during 2 h and then the contracture response to norepinephrine hydrochloride (10^−6 M) was measured before and after exposure to increasing concentrations of the tested synthesized compounds. The tested compounds were dissolved in dimethylsulfoxide (DMSO) as stock solution (10 mL of 0.005 M). […] This experiment was carried out in according to recommendations in the Guide for the Care and Use of Laboratory Animals of the National Institutes of Health (NIH publication No. 85–23, revised 1996) and under regulations of the Animal Care and Use of National Research Centre in Egypt.

[2] = norepinephrine hydrochloride 10^−6 M, three replicates, read-out: Potency (IC50), concentration necessary for 50% reduction of maximal norepinephrine hydrochloride induced contracture
[3] = norepinephrine hydrochloride induced contracture, observed values as used in the QSAR, read-out: Observed IC50

## COc1nc(-c2ccccn2)cc(-c2cn(-c3ccccc3)nc2-c2cc3ccccc3o2)c1C#N [Compound 4u, 4-(3-(Benzofuran-2-yl)-1-phenyl-1H-pyrazol-4-yl)-2-methoxy-6-(pyridin-2-yl)pyridine-3-carbonitrile]
other
  melting point: 275 to 277 °C
[1]; [2]
  IC50: 333 µM
[1]; [3]
  IC50: 333 µM

## COc1nc(-c2ccc3c(c2)CCCC3)cc(-c2cn(-c3ccccc3)nc2-c2cc3ccccc3o2)c1C#N [Compound 4m, 4-(3-(Benzofuran-2-yl)-1-phenyl-1H-pyrazol-4-yl)-6-(1,2,3,4-tetrahydronaphthalen-6-yl)-2-methoxypyridine-3-carbonitrile]
[1]; [2]
  IC50: 286 µM
[1]; [3]
  IC50: 286 µM

## COc1nc(-c2ccc(C)cc2)cc(-c2cn(-c3ccccc3)nc2-c2cc3ccccc3o2)c1C#N [Compound 4i, 4-(3-(Benzofuran-2-yl)-1-phenyl-1H-pyrazol-4-yl)-2-methoxy-6-p-tolylpyridine-3-carbonitrile]
other
  melting point: 258 to 260 °C
[1]; [2]
  IC50: 330 µM
[1]; [3]
  IC50: 330 µM

## CCOc1nc(-c2ccc(C)cc2)cc(-c2cn(-c3ccccc3)nc2-c2cc3ccccc3o2)c1C#N [Compound 4j, 4-(3-(Benzofuran-2-yl)-1-phenyl-1H-pyrazol-4-yl)-2-ethoxy-6-p-tolylpyridine-3-carbonitrile]
other
  melting point: 202 to 204 °C
[1]; [2]
  IC50: 452 µM
[1]; [3]
  IC50: 452 µM

## COc1nc(-c2ccccc2)cc(-c2cn(-c3ccccc3)nc2-c2cc3ccccc3o2)c1C#N [Compound 4a, 4-(3-(Benzofuran-2-yl)-1-phenyl-1H-pyrazol-4-yl)-2-methoxy-6-phenylpyridine-3-carbonitrile]
[1]; [2]
  IC50: 281 µM
[1]; [3]
  IC50: 281 µM

## CCOc1nc(-c2ccc3c(c2)CCCC3)cc(-c2cn(-c3ccccc3)nc2-c2cc3ccccc3o2)c1C#N [Compound 4n, 4-(3-(Benzofuran-2-yl)-1-phenyl-1H-pyrazol-4-yl)-2-ethoxy-6-(1,2,3,4-tetrahydronaphthalen-6-yl)pyridine-3-carbonitrile]
other
  melting point: 213 to 215 °C
[1]; [2]
  IC50: 337 µM
[1]; [3]
  IC50: 337 µM

## CCOc1nc(-c2ccco2)cc(-c2cn(-c3ccccc3)nc2-c2cc3ccccc3o2)c1C#N [Compound 4r, 4-(3-(Benzofuran-2-yl)-1-phenyl-1H-pyrazol-4-yl)-2-ethoxy-6-(furan-2-yl)pyridine-3-carbonitrile]
[1]; [2]
  IC50: 254 µM
[1]; [3]
  IC50: 254 µM

## COc1nc(-c2ccc(Br)cc2)cc(-c2cn(-c3ccccc3)nc2-c2cc3ccccc3o2)c1C#N [Compound 4e, 4-(3-(Benzofuran-2-yl)-1-phenyl-1H-pyrazol-4-yl)-6-(4-bromophenyl)-2-methoxypyridine-3-carbonitrile]
[1]; [2]
  IC50: 253 µM
[1]; [3]
  IC50: 253 µM

## COc1nc(-c2ccc(Cl)cc2)cc(-c2cn(-c3ccccc3)nc2-c2cc3ccccc3o2)c1C#N [Compound 4c, 4-(3-(Benzofuran-2-yl)-1-phenyl-1H-pyrazol-4-yl)-6-(4-chlorophenyl)-2-methoxypyridine-3-carbonitrile]
[1]; [2]
  IC50: 295 µM
[1]; [3]
  IC50: 295 µM

## CCOc1nc(-c2ccccn2)cc(-c2cn(-c3ccccc3)nc2-c2cc3ccccc3o2)c1C#N [Compound 4v, 4-(3-(Benzofuran-2-yl)-1-phenyl-1H-pyrazol-4-yl)-2-ethoxy-6-(pyridin-2-yl)pyridine-3-carbonitrile]
other
  melting point: 204 to 206 °C
[1]; [2]
  IC50: 370 µM
[1]; [3]
  IC50: 370 µM

## COc1nc(-c2cccs2)cc(-c2cn(-c3ccccc3)nc2-c2cc3ccccc3o2)c1C#N [Compound 4s, 4-(3-(Benzofuran-2-yl)-1-phenyl-1H-pyrazol-4-yl)-2-methoxy-6-(thiophen-2-yl)pyridine-3-carbonitrile]
[1]; [2]
  IC50: 268 µM

## CCOc1nc(-c2ccccc2)cc(-c2cn(-c3ccccc3)nc2-c2cc3ccccc3o2)c1C#N [Compound 4b, 4-(3-(Benzofuran-2-yl)-1-phenyl-1H-pyrazol-4-yl)-2-ethoxy-6-phenylpyridine-3-carbonitrile]
other
  melting point: 186 to 188 °C
[1]; [2]
  IC50: 343 µM
[1]; [3]
  IC50: 343 µM

## CCOc1nc(-c2nc3ccccc3n2C)cc(-c2cn(-c3ccccc3)nc2-c2cc3ccccc3o2)c1C#N [Compound 4x, 4-(3-(Benzofuran-2-yl)-1-phenyl-1H-pyrazol-4-yl)-2-ethoxy-6-(1-methyl-1H-benzo[d]-imidazol-2-yl)pyridine-3-carbonitrile]
[1]; [2]
  IC50: 299 µM
[1]; [3]
  IC50: 299 µM

## COc1ccc(-c2cc(-c3cn(-c4ccccc4)nc3-c3cc4ccccc4o3)c(C#N)c(OC)n2)cc1 [Compound 4k, 4-(3-(Benzofuran-2-yl)-1-phenyl-1H-pyrazol-4-yl)-2-methoxy-6-(4-methoxyphenyl)pyridine-3-carbonitrile]
other
  melting point: 256 to 258 °C
[1]; [2]
  IC50: 428 µM
[1]; [3]
  IC50: 322 µM

## CCOc1nc(-c2ccc(F)cc2)cc(-c2cn(-c3ccccc3)nc2-c2cc3ccccc3o2)c1C#N [Compound 4h, 4-(3-(Benzofuran-2-yl)-1-phenyl-1H-pyrazol-4-yl)-2-ethoxy-6-(4-fluorophenyl)pyridine-3-carbonitrile]
other
  melting point: 204 to 206 °C
[1]; [2]
  IC50: 330 µM
[1]; [3]
  IC50: 330 µM

## CCOc1nc(-c2ccc[nH]2)cc(-c2cn(-c3ccccc3)nc2-c2cc3ccccc3o2)c1C#N [Compound 4p, 4-(3-(Benzofuran-2-yl)-1-phenyl-1H-pyrazol-4-yl)-2-ethoxy-6-(1H-pyrrol-2-yl)pyridine-3-carbonitrile]
other
  melting point: 208 to 210 °C
[1]; [2]
  IC50: 400 µM
[1]; [3]
  IC50: 298 µM

## COc1nc(-c2ccc(F)cc2)cc(-c2cn(-c3ccccc3)nc2-c2cc3ccccc3o2)c1C#N [Compound 4g, 4-(3-(benzofuran-2-yl)-1-phenyl-1H-pyrazol-4-yl)-6-(4-fluorophenyl)-2-methoxypyridine-3-carbonitrile]
[1]; [2]
  IC50: 275 µM
[1]; [3]
  IC50: 275 µM

## CCOc1nc(-c2ccc(OC)cc2)cc(-c2cn(-c3ccccc3)nc2-c2cc3ccccc3o2)c1C#N [Compound 4l, 4-(3-(Benzofuran-2-yl)-1-phenyl-1H-pyrazol-4-yl)-2-ethoxy-6-(4-methoxyphenyl)pyridine-3-carbonitrile]
[1]; [2]
  IC50: 291 µM
[1]; [3]
  IC50: 291 µM

## CCOc1nc(-c2cccs2)cc(-c2cn(-c3ccccc3)nc2-c2cc3ccccc3o2)c1C#N [Compound 4t, 4-(3-(Benzofuran-2-yl)-1-phenyl-1H-pyrazol-4-yl)-2-ethoxy-6-(thiophen-2-yl)pyridine-3-carbonitrile]
[1]; [2]
  IC50: 298 µM
[1]; [3]
  IC50: 400 µM

## CCOc1nc(-c2ccc(Cl)cc2)cc(-c2cn(-c3ccccc3)nc2-c2cc3ccccc3o2)c1C#N [Compound 4d, 4-(3-(Benzofuran-2-yl)-1-phenyl-1H-pyrazol-4-yl)-6-(4-chlorophenyl)-2-ethoxypyridine-3-carbonitrile]
other
  melting point: 199 to 201 °C
[1]; [2]
  IC50: 397 µM
[1]; [3]
  IC50: 397 µM

## CCOc1nc(-c2ccc(Br)cc2)cc(-c2cn(-c3ccccc3)nc2-c2cc3ccccc3o2)c1C#N [Compound 4f, 4-(3-(Benzofuran-2-yl)-1-phenyl-1H-pyrazol-4-yl)-6-(4-bromophenyl)-2-ethoxypyridine-3-carbonitrile]
[1]; [2]
  IC50: 267 µM
[1]; [3]
  IC50: 267 µM

## COc1nc(-c2nc3ccccc3n2C)cc(-c2cn(-c3ccccc3)nc2-c2cc3ccccc3o2)c1C#N [Compound 4w, 4-(3-(Benzofuran-2-yl)-1-phenyl-1H-pyrazol-4-yl)-2-methoxy-6-(1-methyl-1H-benzo[d]imidazole-2-yl)pyridine-3-carbonitrile]
[1]; [2]
  IC50: 223 µM
[1]; [3]
  IC50: 223 µM

## COc1nc(-c2ccc[nH]2)cc(-c2cn(-c3ccccc3)nc2-c2cc3ccccc3o2)c1C#N [Compound 4o, 4-(3-(Benzofuran-2-yl)-1-phenyl-1H-pyrazol-4-yl)-2-methoxy-6-(1H-pyrrol-2-yl)pyridine-3-carbonitrile]
other
  melting point: 187 to 189 °C
[1]; [2]
  IC50: 356 µM

## COc1nc(-c2ccco2)cc(-c2cn(-c3ccccc3)nc2-c2cc3ccccc3o2)c1C#N [Compound 4q, 4-(3-(Benzofuran-2-yl)-1-phenyl-1H-pyrazol-4-yl)-6-(furan-2-yl)-2-methoxypyridine-3-carbonitrile]
other
  melting point: 246 to 248 °C
[1]; [2]
  IC50: 321 µM
[1]; [3]
  IC50: 321 µM
